Read-outs that look alike come from different tables or passages of the source.
What was measured:
P. falciparum K1 strain = test: P. falciparum 3H-hypoxanthine incorporation assay; SI versus L6 cells; type: cell-based, Plasmodium falciparum; settings: for IC50: Plasmodium falciparum, K1, L6, read-out: Compound activity P.F (IC50); for Selectivity Index P.F: relative to L6 cells
Method: L6 rat skeletal myoblasts, [29] were purchased from the American Type Culture Collection (ATCC, Rockville, MD, USA; ATCC number CRL 1458). This cell line was used for cytotoxicity testing to calculate an SI against T.b. rhodesiense and screened alongside the T.b. rhodesiense, P. falciparum, T. cruzi and L. donovani assays. L6 were also the host cells for the T. cruzi assay. Assays were performed in 96-well microtiter plates, each well containing 100 µl of RPMI 1640 medium supplemented with 1% L-glutamine (200 mM), 10% FCS, and 4000 L6 cells. Serial drug dilutions of eleven 3-fold dilution steps covering a range from 100 to 0.002 µg/ml were prepared. After 70 hours of incubation the plates were inspected under an inverted microscope to assure growth of the controls and sterile conditions. Ten µl of resazurin solution (resazurin, 12.5 mg in 100 ml double-distilled water) was then added to each well and the plates incubated for another 2 hours. Then the plates were read with a Spectramax Gemini XS microplate fluorometer (Molecular Devices Cooperation, Sunnyvale, CA, USA) using an excitation wavelength of 536 nm and an emission wavelength of 588 nm. Data was analysed using the microplate reader software Softmax Pro (Molecular Devices, USA). Podophyllotoxin was used as a positive control in the assay.
Compounds dissolved in DMSO at 10 mg/ml were added to parasite cultures incubated in RPMI 1640 medium without hypoxanthine, supplemented with HEPES (5.94 g/l), NaHCO3 (2.1 g/l), neomycin (100 U/ml), Albumax (5 g/l) and washed human A^+ red blood cells at 2.5% haematocrit (0.3% parasitaemia). Serial drug dilutions of eleven 3-fold dilution steps covering a range from 100 to 0.002 µg/ml were prepared. The 96-well plates were incubated in a humidified atmosphere at 37°C; 4% CO2, 3% O2, 93% N2. After 48 hours, 50 µl of ^3H-hypoxanthine ( = 0.5 µCi) was added to each well of the plate. The plates were incubated for a further 24 hours under the same conditions. The plates were then harvested with a Betaplate cell harvester (Wallac, Zurich, Switzerland), and the red blood cells transferred onto a glass fibre filter then washed with distilled water. The dried filters were inserted into a plastic foil with 10 ml of scintillation fluid, and counted in a Betaplate liquid scintillation counter (Wallac, Zurich, Switzerland). IC50 values were calculated from sigmoidal inhibition curves using Microsoft Excel.

HEK293 cells = test: HEK293 Alamar Blue viability estimation assay; type: cell-based, human; settings: for IC50: Homo sapiens, HEK293
Method: T.b. brucei lister 427 cells were maintained in log phase growth in 25 cm^2 tissue culture flasks (Corning, NY, USA) by sub-culturing at either 24 or 48 hour intervals. Cells were grown in HMI-9 medium, supplemented with 10% fetal calf serum (FCS) and 100 IU/ml penicillin/streptomycin (Invitrogen, Carlsbad, California, USA) with incubation at 5% CO2 at 37°C in humidified conditions. HEK293 cells were maintained in high glucose DMEM with L-glutamine, supplemented with 1× non-essential amino acids (NEAA; Invitrogen, USA) and 1 mM sodium pyruvate. Growth conditions were in 5% CO2 at 37°C, under humidified conditions.
Cells at 80% confluence were harvested and diluted in growth medium (high glucose DMEM supplemented with 10% FCS) to 7.27×10^4 cells/ml. Under sterile conditions, 55 µl of diluted cells per well were added to a black, clear bottomed 384-well lidded plate (BD Biosciences, Bedford, MA, USA) with a Multidrop liquid handler (Thermo Scientific, Barrington, IL, USA). Incubation times, compound additions and plate read were as per the trypanosome viability assay, with the exception that Alamar Blue was diluted in HEK293 growth media before addition, and incubation of Alamar Blue at 37°C, in 5% CO2, was for 4 hours, followed by incubation at room temperature for 20 hours. The activity of compounds against HEK293 cells was used to calculate the SI of mammalian to T.b. brucei cells. The control compound for HEK293 cells was puromycin (Calbiochem, USA).
Compounds identified from primary screening were retested against both T.b. brucei and HEK293 cells in duplicate and at varying concentrations to obtain a dose-response curve. Thus, a 5 µl sample of fresh compound stock solution (5 mM in DMSO) was cherry picked into 384-well plates and diluted 1∶10 in dilution medium (high glucose DMEM without FCS). Serial dilutions of these samples were then prepared in the same media by a Minitrak robotic liquid handler (Perkin Elmer, USA). […] A screening dose of 10.4 µM was included in the dilution series to enable reconfirmation of primary screening T.b. brucei activity.
The DMSO working concentration in the serial dilutions was maintained at 5%, giving a final assay concentration of 0.42% DMSO, except for the 41.7 µM test compound solution, where as previously stated the corresponding DMSO concentration was 0.83% v/v. […] Therefore the 41.7 µM test compound sample with 0.83% v/v DMSO was not used in the T.b. brucei assay and thus the top test compound concentration in this assay was 20.8 µM.
Compound activity in the retest campaign was calculated as percentage inhibition in relation to positive and negative controls, in the same manner as the primary screening campaign. The positive controls, pentamidine (2 µM final concentration) for T.b. brucei and puromycin (8 µM final concentration) for HEK293, were both screened in whole 384-well control plates. Whole 384-well plate controls were included after every batch of 20 compound plates, and were comprised of half a plate of negative control and half a plate of positive control. The negative control was the vehicle, […]. The negative control was also included in column 24 of each compound assay plate to determine signal variation from plate to plate and to calculate compound activity. The exception was the 41.7 µM compound dose used in the HEK293 assay. In these plates column 24 contained 0.83% DMSO as a negative control. A separate 384-well plate containing a 13 point dose-response of the reference compounds puromycin, pentamidine and diminazene, in triplicate, was also included per 20 compound test plate batch to estimate assay sensitivity.
These compounds were retested as in dose for N of three replicates, as described above for both T.b. brucei and HEK293.

[1] = pentamidine 1 µM, diminazene 40 µM

## CCS(=O)(=O)N1CCCc2ccc(NS(=O)(=O)c3ccccc3F)cc21 [Compound 5]
P. falciparum K1 strain
  IC50: 12.6 ± 5.87 µM
  Selectivity Index P.F: 1.72

## Cc1cc(O)nc(-n2nc(C)cc2NC(=O)C2CCCC2)n1 [Compound 4]
P. falciparum K1 strain
  IC50: 8.17 ± 4 µM
  Selectivity Index P.F: 0.110

## CCc1ccccc1N=C(NCCN1CCOCC1)NC(=O)c1ccccc1 [Compound 8]
P. falciparum K1 strain
  IC50: 5.33 ± 2.04 µM
  Selectivity Index P.F: 24.8

## O=C(Nc1ccc(Cl)c(-c2nc3ncccc3o2)c1)c1ccco1 [Compound 7]
HEK293 cells; read-out: Restest IC50 HEK
  IC50: > 41.7 µM
P. falciparum K1 strain
  IC50: 7.76 ± 3.22 µM

## O=C(NCCc1n[nH]c(-c2ccc(F)cc2)n1)c1cccc(F)c1 [Compound 2]
HEK293 cells; read-out: Restest IC50 HEK
  IC50: 41.7 µM
P. falciparum K1 strain
  IC50: 23.9 ± 8.48 µM
  Selectivity Index P.F: 5.00

## COc1ccc(C[C@H](N)C(=O)N[C@H]2[C@@H](O)[C@H](n3cnc4c(N(C)C)ncnc43)O[C@@H]2CO)cc1 [Puromycin, puromycin, reference compound]
HEK293 cells; reference compound, read-out: IC50 against HEK293, retest screening campaign
  IC50: 1.12 ± 0.155 µM
HEK293 cells; reference compound, read-out: IC50 in HEK293 assay, rescreening of resynthesized compounds
  IC50: 0.518 ± 0.0281 µM

## N=C(N)c1ccc(OCCCCCOc2ccc(C(=N)N)cc2)cc1 [Pentamidine, pentamidine, reference compound]
HEK293 cells; [1]
  activity in the HEK293 assay at the doses screened, rescreening: neither pentamidine nor diminazene displayed activity
  activity in the HEK293 assay at the doses screened, retest campaign: Neither pentamidine nor diminazene displayed activity

## CCOc1ccc(OCc2ccc(C(=O)N3CCCC(C)C3)cc2)cc1 (centres unmarked) [Compound 3]
HEK293 cells; read-out: Restest IC50 HEK
  IC50: 41.7 µM
P. falciparum K1 strain
  IC50: 14.3 ± 6.64 µM
  Selectivity Index P.F: 3.48

## CC(C)(C)C(=O)NCCc1csc(-c2cccc(F)c2)n1 [Compound 1]
HEK293 cells; read-out: Restest IC50 HEK
  IC50: 41.7 µM
P. falciparum K1 strain
  IC50: 35.4 ± 2.75 µM
  Selectivity Index P.F: 1.76

## CCC(C)NC(=O)c1nc(-c2ccccc2)cnc1N (centres unmarked) [Compound 6]
P. falciparum K1 strain
  IC50: 11.3 ± 4.79 µM
  Selectivity Index P.F: 1.58
